According to patent US20240024279A1, “METHODS FOR REDUCING THE WEIGHT LOSS OR INCREASING THE WEIGHT OF A FELINE IN NEED THEREOF” (INCREVET, INC., priority 2019, published 2024):
“Also recorded” adds a separate entry of the source.

Key:
obese cats = details: velagliflozin group, 1 mg/kg in gelatin capsules, cited from earlier work
[1] = tested on: healthy purpose-bred cats; test: Urinary glucose excretion in healthy purpose-bred cats after once-daily oral velagliflozin capsules for three days; assay type: in vivo, cat; details: gelatin capsules once a day for three days, urine
Protocol: Velagliflozin (2-(4-cyclopropylbenzyl)-4-((2S,3R,4R,5S,6R)-3,4,5-trihydroxy-6-(hydroxymethyl)tetrahydro-2H-pyran-2-yl)benzonitrile, CAS number 946525-65-1; Compound 1) can be prepared by a variety of means, including as described in US2015/0164856A1 and is commercially available, for example as catalog number HY-109018 from MedChemExpress. Velagliflozin formulated in gelatin capsules was administered to healthy purpose-bred cats once a day for three days and the urinary glucose excretion recorded over the three consecutive 24-hour periods following dosing. Velagliflozin was administered at three dose levels: 1 mg, 3 mg and 10 mg per cat per day. The mean daily glucose excretion over three days was 2527 mg, 3601 mg and 5256 mg for mean dosages of 0.318 mg/kg, 0.953 mg/kg and 3.071 mg/kg, respectively.

[2] = tested on: client-owned cats diagnosed with diabetes mellitus; test: Field effectiveness study in client-owned cats with diabetes mellitus; assay type: in vivo, cat; details: diabetic cats, oral once daily, day 0 to day 56, low-carbohydrate diet
Protocol: In a field effectiveness study, client-owned cats diagnosed with diabetes mellitus based on: i) two separate fasting (>6 h) blood glucose measurements >250 mg dL^−1; ii) glucosuria; iii) fructosamine >25% above the upper limit of normal for the testing laboratory, and iv) one or more of the following: polyuria/polydipsia, polyphagia and/or weight loss (documented in the cat's medical records) can be enrolled. Cats with suspected diabetes mellitus can be evaluated during visit 1 (within 7 days prior to day 0). Eligible cats can be enrolled during visit 2 (day 0) and management can be initiated using velagliflozin administered orally once daily. Cats can be prescribed a low-carbohydrate diet. Cats would return to the clinic for evaluation of glycemic control during visits 3 (day 14±3), 4 (day 28±3), and 5 (day 56±3). […] A cat can be brought back to the clinic at any time for unscheduled visits if such visits are determined to be necessary by the owner or investigator. Eight-hour blood glucose curves (blood samples collected every 2 h±15 min for 8 h) can be conducted at every visit starting with visit 2 (day 0) and blood glucose can be measured using an AlphaTRAK 2 glucometer (Abbott Laboratories). […] A central laboratory would be used to evaluate all clinical pathology samples (blood, serum, and urine) that are not analyzed in the clinic for blood glucose curves. […]

[3] = most species; cited from earlier work
[4] = tested on: experimental diabetes in dogs; details: pancreatectomized animals in full glycosuria; cited from earlier work
[5] = tested on: experimental diabetes in cats; details: cats with experimental diabetes, subcutaneous injection of a suspension in olive oil; cited from earlier work

SMILES | body weight at end of treatment (obese cats; after the course of treatment) [kg] | food intake at end of treatment (obese cats; after the course of treatment) [g] | body weight at start of treatment (obese cats; before treatment) [kg] | food intake at start of treatment (obese cats; before treatment) [g] | mean daily glucose excretion over three days ([1]; 1 mg per cat per day, mean dosage 0.318 mg/kg) [mg] | mean daily glucose excretion over three days ([1]; 3 mg per cat per day, mean dosage 0.953 mg/kg) [mg] | mean daily glucose excretion over three days ([1]; 10 mg per cat per day, mean dosage 3.071 mg/kg) [mg] | body weight change [2] | owner-evaluated clinical signs (polydipsia, polyphagia, polyuria) [2] | half-life [3] | effect on hyperglycemia [4] | effect on hyperglycemia [5]
N#Cc1ccc([C@@H]2O[C@H](CO)[C@@H](O)[C@H](O)[C@H]2O)cc1Cc1ccc(C2CC2)cc1 [Velagliflozin, 2-(4-cyclopropylbenzyl)-4-((2S,3R,4R,5S,6R)-3,4,5-trihydroxy-6-(hydroxymethyl)tetrahydro-2H-pyran-2-yl)benzonitrile] | 7.0 ± 1.4 | 58 ± 11 | 7.2 ± 1.5 | 57 ± 8 | 2527 | 3601 | 5256 | Weight gain and reduction in weight loss; also recorded: increase the average weight of a cat or reduce the weight loss of a cat | improvement in polydipsia, polyphagia and polyuria |  |  | 
O=C(CCc1ccc(O)cc1)c1c(O)cc(O)cc1O[C@@H]1O[C@H](CO)[C@@H](O)[C@H](O)[C@H]1O [phlorizin] |  |  |  |  |  |  |  |  |  | short half-life | the hyperglycemia disappears | dramatic reduction of hyperglycemia
